Consider 34 molecules from ChEMBL document CHEMBL3352205, “Indazole- and indole-5-carboxamides: selective and reversible monoamine oxidase B inhibitors with subnanomolar potency” (J Med Chem, 2014).

pIC50: −log10 of the molar value.

The species entered for one assay is Homo sapiens. The assay can be described thus: Selectivity index, ratio of IC50 for human recombinant MAO-A to IC50 for human recombinant MAO-B.
Assay [1] addresses T1, Amine oxidase [flavin-containing] B (Homo sapiens, UniProt P27338).
T1 sequence (P27338 whole entry): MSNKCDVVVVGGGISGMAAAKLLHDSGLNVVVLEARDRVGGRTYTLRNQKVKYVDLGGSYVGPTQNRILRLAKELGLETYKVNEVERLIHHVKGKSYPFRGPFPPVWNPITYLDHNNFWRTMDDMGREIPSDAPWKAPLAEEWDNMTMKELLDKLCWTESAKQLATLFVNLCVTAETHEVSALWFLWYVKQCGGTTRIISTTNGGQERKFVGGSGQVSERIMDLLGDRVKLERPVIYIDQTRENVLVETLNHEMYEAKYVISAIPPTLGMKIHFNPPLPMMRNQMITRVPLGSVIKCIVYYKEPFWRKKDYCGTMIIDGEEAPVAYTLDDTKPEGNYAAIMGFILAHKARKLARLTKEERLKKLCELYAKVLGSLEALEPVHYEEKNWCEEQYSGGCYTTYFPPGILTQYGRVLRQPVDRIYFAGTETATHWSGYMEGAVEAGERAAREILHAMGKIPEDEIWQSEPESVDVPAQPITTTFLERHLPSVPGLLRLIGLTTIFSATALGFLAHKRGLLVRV
The assay can be described thus: biochemical. In kind it is cell-based.
Description: Inhibition of human recombinant MAO-B expressed in baculovirus-infected insect cells using p-tyraimne substrate

The target in assay [2] is T2, Amine oxidase [flavin-containing] B (Rattus norvegicus, UniProt P19643).
T2 sequence (P19643 whole entry): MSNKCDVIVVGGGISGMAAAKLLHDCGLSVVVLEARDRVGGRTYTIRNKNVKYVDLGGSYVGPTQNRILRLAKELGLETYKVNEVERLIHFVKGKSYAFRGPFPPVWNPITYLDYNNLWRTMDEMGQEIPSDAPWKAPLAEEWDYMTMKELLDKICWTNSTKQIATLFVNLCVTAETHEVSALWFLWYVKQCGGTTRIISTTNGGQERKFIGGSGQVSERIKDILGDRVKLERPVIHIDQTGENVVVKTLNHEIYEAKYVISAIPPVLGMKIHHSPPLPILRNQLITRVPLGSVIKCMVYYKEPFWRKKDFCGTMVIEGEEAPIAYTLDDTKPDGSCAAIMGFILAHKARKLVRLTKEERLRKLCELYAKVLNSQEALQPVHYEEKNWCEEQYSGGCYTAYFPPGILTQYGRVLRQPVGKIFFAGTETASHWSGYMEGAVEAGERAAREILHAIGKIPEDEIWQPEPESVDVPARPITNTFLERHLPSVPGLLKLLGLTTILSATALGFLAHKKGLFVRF
Nature of the assay: Inhibition of rat MAO-B from mitochondria-enriched rat liver fractions using p-tyraimne substrate.

In assay [3] the target is T3, Amine oxidase [flavin-containing] A (Rattus norvegicus, UniProt P21396).
T3 sequence (P21396 whole entry): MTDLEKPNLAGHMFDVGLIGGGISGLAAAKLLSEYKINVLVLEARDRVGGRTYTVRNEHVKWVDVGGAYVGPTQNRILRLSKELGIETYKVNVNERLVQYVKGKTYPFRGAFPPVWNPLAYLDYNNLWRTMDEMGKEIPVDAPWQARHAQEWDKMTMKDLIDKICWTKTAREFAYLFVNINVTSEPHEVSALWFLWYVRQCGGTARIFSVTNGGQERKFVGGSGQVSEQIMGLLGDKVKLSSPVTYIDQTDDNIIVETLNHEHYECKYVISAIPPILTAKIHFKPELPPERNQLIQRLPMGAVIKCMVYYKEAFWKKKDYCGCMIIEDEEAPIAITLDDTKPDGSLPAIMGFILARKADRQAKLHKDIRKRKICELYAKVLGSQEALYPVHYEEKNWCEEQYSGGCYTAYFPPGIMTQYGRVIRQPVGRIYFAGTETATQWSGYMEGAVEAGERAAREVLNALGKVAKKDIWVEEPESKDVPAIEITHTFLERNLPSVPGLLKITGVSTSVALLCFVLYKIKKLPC
Nature of the assay: Inhibition of rat MAO-A from mitochondria-enriched rat liver fractions using p-tyraimne substrate.

For assay [4], the target named is T4, Amine oxidase [flavin-containing] A (Homo sapiens, UniProt P21397).
T4 sequence (P21397 whole entry): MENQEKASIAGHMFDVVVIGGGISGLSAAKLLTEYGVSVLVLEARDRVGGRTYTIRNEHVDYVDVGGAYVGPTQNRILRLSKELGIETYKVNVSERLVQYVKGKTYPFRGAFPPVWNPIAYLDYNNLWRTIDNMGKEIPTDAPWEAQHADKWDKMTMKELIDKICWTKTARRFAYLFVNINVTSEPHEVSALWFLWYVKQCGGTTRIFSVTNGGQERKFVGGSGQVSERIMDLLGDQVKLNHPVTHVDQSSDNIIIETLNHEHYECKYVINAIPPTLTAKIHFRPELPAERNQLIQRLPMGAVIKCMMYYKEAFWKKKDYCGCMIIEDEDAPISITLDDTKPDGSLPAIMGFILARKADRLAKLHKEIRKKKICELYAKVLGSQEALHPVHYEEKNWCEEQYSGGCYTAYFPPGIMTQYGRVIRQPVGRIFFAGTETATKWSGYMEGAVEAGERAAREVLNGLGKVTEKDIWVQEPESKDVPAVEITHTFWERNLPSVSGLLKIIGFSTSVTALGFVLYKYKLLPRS
Nature of the assay: Inhibition of human recombinant MAO-A expressed in baculovirus-infected insect cells using p-tyraimne substrate. The conditions noted are these: for pIC50: read-out: IC50.

`COc1ccc(NC(=O)c2ccc3[nH]ncc3c2)cc1Cl`: the Ratio IC50 in the assay filed under Homo sapiens turned out to be 2920.

The term pIC50 denotes the IC50 on a negative log10 scale, so that one unit is a factor of ten. For the molecule `O=C(Nc1ccc2[nH]ncc2c1)c1ccc(Cl)c(Cl)c1`, the pIC50 is 7.91 in assay [1], 6.86 in assay [2], < 5.00 in assay [3] and < 5.00 in assay [4]. Besides, in the assay listed under Homo sapiens, the Ratio IC50 was determined as 806.

As for `O=C(Nc1ccccc1)c1ccc2[nH]ncc2c1`, the negative logarithm of the IC50 (pIC50) in assay [1] is 6.93; in assay [2] it was 6.15; in assay [3] it was < 5.00; in assay [4], < 5.00. Besides, the Ratio IC50 in the assay listed under Homo sapiens is > 86.

For the molecule `COc1ccc(NC(=O)c2ccc3cn[nH]c3c2)cc1OC`, the pIC50 in assay [1], in assay [2], in assay [3] and in assay [4] was < 5.00 throughout.

Regarding `O=C(Nc1ccc(Cl)c(O)c1)c1ccc2cn[nH]c2c1`, the negative logarithm of the IC50 (pIC50) was 5.21 in assay [1], < 5.00 in assay [2], < 5.00 in assay [3] and < 5.00 in assay [4]. Further, in the assay listed under Homo sapiens, the Ratio IC50 amounted to 2.

Take `Cn1ncc2cc(/C=N/c3ccc(Cl)c(Cl)c3)ccc21`: the negative-log IC50 (pIC50) was 8.99 in assay [1], 8.34 in assay [2], < 5.00 in assay [3] and > 5.00 in assay [4]. Further, the Ratio IC50 in the assay filed under Homo sapiens was found to be 9710.

Regarding `O=C(Nc1cnc(Cl)c(Cl)c1)c1ccc2[nH]ncc2c1`, the Ratio IC50 in the assay filed under Homo sapiens amounted to 1840.

As for `O=C(Nc1ccc2[nH]ncc2c1)c1cccc(Cl)c1Cl`, the pIC50 is 5.59 in assay [1], < 5.00 in assay [2], < 5.00 in assay [3] and < 5.00 in assay [4].

In the case of `O=C(Nc1cc(Cl)cc(Cl)c1)c1ccc2[nH]ncc2c1`, the pIC50 is 8.56 in assay [1], 8.56 in assay [2], < 5.00 in assay [3] and < 5.00 in assay [4]. In addition, the Ratio IC50 in the assay listed under Homo sapiens was 3640.

For `O=C(Nc1ccc2[nH]ncc2c1)c1c(F)cccc1Cl`, the negative logarithm of the IC50 (pIC50) is 5.48 in assay [1], < 5.00 in assay [2], < 5.00 in assay [3] and < 5.00 in assay [4].

With `O=C(Nc1ccc(O)c(Cl)c1)c1ccc2[nH]ncc2c1`, the Ratio IC50 in the assay listed under Homo sapiens was > 81.

Turning to `O=C(Nc1ccc(Cl)c(Cl)c1)c1ccc2[nH]ccc2c1`, the values for the pIC50 in assay [2], in assay [3] and in assay [4] were 9.00, 5.17 and 5.89, respectively.

`O=C(Nc1ccc(F)c(Cl)c1)c1ccc2cn[nH]c2c1`: the negative-log IC50 (pIC50) is 6.63 in assay [1], 5.97 in assay [2], < 5.00 in assay [3] and < 5.00 in assay [4]. For the same molecule, the Ratio IC50 in the assay listed under Homo sapiens was > 42.

`O=C(Nc1ccc(Cl)c(O)c1)c1ccc2[nH]ncc2c1`: in the assay filed under Homo sapiens, the Ratio IC50 is 80.

With `O=C(Nc1cc(Cl)cc(Cl)c1)c1ccc2cn[nH]c2c1`, the negative logarithm of the IC50 (pIC50) was 6.47 in assay [1], 6.37 in assay [2], < 5.00 in assay [3] and < 5.00 in assay [4]. Moreover, the Ratio IC50 in the assay listed under Homo sapiens was > 29.

As for `COc1ccc(NC(=O)c2ccc3cn[nH]c3c2)cc1Cl`, the negative logarithm of the IC50 (pIC50) is 5.89 in assay [1], > 5.00 in assay [2], < 5.00 in assay [3] and < 5.00 in assay [4]. In addition, the Ratio IC50 in the assay listed under Homo sapiens was determined as 8.

In the case of `O=C(Nc1ccc(Cl)c(Cl)c1)c1ccc2nncn2c1`, the negative logarithm of the IC50 (pIC50) in assay [1] is 5.64; in assay [2], < 5.00; in assay [3] it was < 5.00; in assay [4], < 5.00. Besides, in the assay filed under Homo sapiens, the Ratio IC50 is > 4.

For the molecule `O=C(Nc1ccc(Cl)c(F)c1)c1ccc2cn[nH]c2c1`, the negative-log IC50 (pIC50) in assay [1] was 6.50; in assay [2], 5.57; in assay [3], < 5.00; in assay [4], < 5.00. Moreover, the Ratio IC50 in the assay filed under Homo sapiens was > 31.

With `COc1cc(NC(=O)c2ccc3[nH]ncc3c2)ccc1Cl`, in the assay filed under Homo sapiens, the Ratio IC50 is 2020.

For the molecule `Cn1cc(C(=O)Nc2ccc3[nH]ncc3c2)ccc1=O`, the negative-log IC50 (pIC50) in assay [1], in assay [2], in assay [3] and in assay [4] was < 5.00 in each case.

For `COc1ccc(NC(=O)c2ccc3[nH]ncc3c2)cc1OC`, the Ratio IC50 in the assay listed under Homo sapiens is > 54.

Consider `O=C(Nc1ccc(O)c(Cl)c1)c1ccc2cn[nH]c2c1`, for which the pIC50 in assay [1] was > 5.00; in assay [2], 5.48; in assay [3], < 5.00; in assay [4] it was < 5.00.

As for `COc1cc(NC(=O)c2ccc3cn[nH]c3c2)ccc1Cl`, the pIC50 in assay [1] is 5.56; in assay [2], < 5.00; in assay [3] it was < 5.00; in assay [4], < 5.00. Further, the Ratio IC50 in the assay listed under Homo sapiens worked out at 4.

`O=C(Nc1ccc(Cl)c(F)c1)c1ccc2[nH]ncc2c1`: in the assay filed under Homo sapiens, the Ratio IC50 amounted to 15000. For the same molecule, the negative-log IC50 (pIC50) in assay [4] is < 5.00.

Turning to `O=C(Nc1ccc(F)c(F)c1)c1ccc2[nH]ncc2c1`, in the assay listed under Homo sapiens, the Ratio IC50 turned out to be 6290.

Regarding `O=[N+]([O-])c1ccc2[nH]ncc2c1`, the pIC50 in assay [1] was 5.60. Besides, the IC50 result in assay [4] is on record as “Not Active”.

As to `Clc1ccc(/N=C/c2ccc3[nH]ncc3c2)cc1Cl`, the negative logarithm of the IC50 (pIC50) in assay [3] was < 5.00; in assay [4] it was > 5.00.

For `O=C(Nc1ccc2cn[nH]c2c1)c1cnc(N2CCOCC2)c(Cl)c1`, the negative logarithm of the IC50 (pIC50) is 6.66 in assay [1], 5.70 in assay [2], < 5.00 in assay [3] and < 5.00 in assay [4]. For the same molecule, the Ratio IC50 in the assay listed under Homo sapiens is > 9.

As for `O=C(Cc1ccc(Cl)c(Cl)c1)Nc1ccc2[nH]ncc2c1`, the pIC50 in assay [1] is 6.05; in assay [2], < 5.00; in assay [3], < 5.00; in assay [4], < 5.00. For the same molecule, the Ratio IC50 in the assay listed under Homo sapiens was > 11.

As to `O=C(Nc1ccc(F)c(F)c1)c1ccc2cn[nH]c2c1`, the negative logarithm of the IC50 (pIC50) in assay [1] was 5.89; in assay [2], > 5.00; in assay [3], < 5.00; in assay [4] it was < 5.00. Also, the Ratio IC50 in the assay filed under Homo sapiens is > 7.

As to `O=C(NCc1ccc(Cl)c(Cl)c1)c1ccc2[nH]ncc2c1`, the negative logarithm of the IC50 (pIC50) in assay [1] was 6.41; in assay [2], 6.08; in assay [3], < 5.00; in assay [4] it was < 5.00. Also, the Ratio IC50 in the assay filed under Homo sapiens was > 25.

As to `O=C(Nc1ccc(Cl)c(Cl)c1)c1ccc2nccn2c1`, the negative-log IC50 (pIC50) in assay [1] was 6.85; in assay [2], 5.94; in assay [3] it was < 5.00; in assay [4] it was < 5.00. For the same molecule, the Ratio IC50 in the assay listed under Homo sapiens was 71.

For the molecule `O=C(Nc1ccc(Cl)c(Cl)c1)c1ccc2cn[nH]c2c1`, the pIC50 in assay [1] is 7.17; in assay [2], 6.33; in assay [3], > 5.00; in assay [4], 5.48. Moreover, in the assay filed under Homo sapiens, the Ratio IC50 was > 49.

For `Cn1ccc2cc(C(=O)Nc3ccc(Cl)c(Cl)c3)ccc21`, the negative logarithm of the IC50 (pIC50) in assay [1] is 8.65; in assay [2], 8.95; in assay [3], < 5.00; in assay [4], < 5.00. In addition, in the assay listed under Homo sapiens, the Ratio IC50 is 4420.
